Values quoted from earlier work in patent US20020155997A1 (priority 2000, published 2002).

System: bovine plasma
Settings: reference standard

## dextran sulfate
  anticoagulant activity of the standard: 25 units/mg
